Test system: GFP-labeled human myeloma MM1.S cells
Test: GFP-labeled MM1.S myeloma cell growth with/without stromal cells, fluorescence microscopy
Type: cell-based
Conditions: 10 μM, 72 hours
Method: FIG. 3 is a graph depicting MM cell growth inhibition. Data is shown as the mean±SD (n=5). *: P<0.01 compared to no-inhibitor cultures without stromal cells. **: P<0.01 compared to no-treatment co-cultured with stromal cells.
Compound 3 was tested for its capacity to block MM-stimulated signaling in marrow stromal cells, thereby resulting in less bone destruction and MM growth. The effects of the compound 3 on GFP-labeled MM1.S myeloma cell growth with/without stromal cells, IL-6 and VCAM-1 expression on stromal cells induced by TNF-α and OCL formation, and TNF-α induced PKCζ phosphorylation, the specific kinase enzyme activated p62-ZZ, were examined. GFP-labeled MM1.S myeloma cells or normal human CFU-GM, a source of OCL precursors, were then co-cultured with human stromal cells with the p62-ZZ inhibitor. The 10 μM of inhibitor compound 3 blocked MM cell growth by 90% compared to vehicle (0.1% DMSO). […] VCAM-1 expression and IL-6 production induced by TNF-α on stromal cells was blocked by 30% and 90% respectively compared to vehicle levels. Furthermore, TNF-α induced PKC, phosphorylation blocked was in stromal cells and MM1.S when pre-treated with this p62-ZZ inhibitory compound for 3 hours.
Primary human bone marrow stromal cells were maintained in 10% FCS-IMDM. Stromal cells (1.5×10^3 cells/well) were cultured one day prior to the start of co-culture. Green fluorescent protein (GFP)-labeled human myeloma MM1.S cells (7.5×10^3 cells/well) were then cultured with/without stromal cells in the presence or absence of the p62-ZZ inhibitors (#1-6) for 72 hours. MM cell growth was determined by fluorescence microscopy.

OCCNCc1ccc(OCc2ccccc2)c(OCc2ccccc2)c1 [Compound 3, 2-[[3,4-bis(phenylmethoxy)phenyl]methylamino]ethanol]
MM cell growth (result in words) (FIG. 3): directly blocked MM cell growth
MM cell growth blocked compared to vehicle (vs vehicle (0.1% DMSO)): 90%
